In patent US20170000133A1, “BENZOXABOROLE FUNGICIDES” (SYNGENTA PARTICIPATIONS AG, priority 2013, published 2017):

Tests used:
[1] = tested on: Pythium ultimum; test: Pythium ultimum / liquid culture (seedling damping off); type: cell-based; conditions: Globisporangium ultimum; 200 ppm; potato dextrose broth, 24° C., 2-3 days after application; read-out: disease control (inhibition of growth determined photometrically)
[2] = tested on: Gaeumannomyces graminis; test: Gaeumannomyces graminis / liquid culture (take-all of cereals); type: cell-based; conditions: PDB potato dextrose broth, 24° C., 4-5 days after application, read-out: disease control (inhibition of growth determined photometrically)
Method: (§1) 14. Gaeumannomyces graminis/Liquid Culture (Take-all of Cereals): Mycelial fragments of the fungus from cryogenic storage were directly mixed into nutrient broth (PDB potato dextrose broth). After placing a DMSO solution of test compound into a 96-well microtiter plate at an application rate of 200 ppm, the nutrient broth Cp.33, containing the fungal spores is added. The test plates were incubated at 24° C. and the inhibition of growth was determined photometrically 4-5 days after application.

[3] = tested on: Mycosphaerella arachidis (Cercospora arachidicola); test: Mycosphaerella arachidis (Cercospora arachidicola) / liquid culture (early leaf spot); type: cell-based; conditions: PDB potato dextrose broth, 24° C., 4-5 days after application, read-out: disease control (inhibition of growth determined photometrically)
Method: as §1, with “12. Mycosphaerella arachidis (Cercospora arachidicola)/Liquid” for “14. Gaeumannomyces graminis/Liquid”, “(Early Leaf Spot): Conidia” for “(Take-all of Cereals): Mycelial fragments”, “broth” for “broth Cp.33,”, “was” for “is”

[4] = tested on: Thanatephorus cucumeris (Rhizoctonia solani); test: Thanatephorus cucumeris (Rhizoctonia solani) / liquid culture (foot rot, damping-off); type: cell-based; conditions: PDB potato dextrose broth, 24° C., 3-4 days after application, read-out: disease control (inhibition of growth determined photometrically)
Method: 17. Thanatephorus cucumeris (Rhizoctonia solani)/Liquid Culture (Foot Rot, Damping-Off): Mycelia fragments of a newly grown liquid culture of the fungus were directly mixed into nutrient broth (PDB potato dextrose broth). After placing a DMSO solution of the test compounds into a 96-well microtiter plate at an application rate of 200 ppm, the nutrient broth containing the fungal material was added. The test plates were incubated at 24° C. and the inhibition of growth was determined photometrically 3-4 days after application.

[5] = tested on: Monographella nivalis (Microdochium nivale); test: Monographella nivalis (Microdochium nivale) / liquid culture (foot rot cereals); type: cell-based; conditions: PDB potato dextrose broth, 24° C., 4-5 days after application, read-out: disease control (inhibition of growth determined photometrically)
[6] = tested on: Glomerella lagenarium (Colletotrichum lagenarium); test: Glomerella lagenarium (Colletotrichum lagenarium) / liquid culture (anthracnose); type: cell-based; conditions: Colletotrichum orbiculare, PDB potato dextrose broth, 24° C., 3-4 days after application, read-out: disease control (inhibition of growth measured photometrically)
Method: as §1, with “11. Glomerella lagenarium (Colletotrichum lagenarium)/Liquid” for “14. Gaeumannomyces graminis/Liquid”, “(Anthracnose): Conidia” for “(Take-all of Cereals): Mycelial fragments”, “broth” for “broth Cp.33,”, “was” for “is”, “measured” for “determined”, “3-4” for “4-5”

[7] = tested on: Plasmopara viticola; test: whole plant or invertebrate; type: in vivo; conditions: foliar, read-out: disease control
[8] = tested on: Mycosphaerella graminicola (Septoria tritici); test: Mycosphaerella graminicola (Septoria tritici) / liquid culture (Septoria blotch); type: cell-based; conditions: Zymoseptoria tritici, PDB potato dextrose broth, 24° C., 4-5 days after application, read-out: disease control (inhibition of growth determined photometrically)
Method: as §1, with “13. Mycosphaerella graminicola (Septoria tritici)/Liquid” for “14. Gaeumannomyces graminis/Liquid”, “(Septoria Blotch): Conidia” for “(Take-all of Cereals): Mycelial fragments”, “broth” for “broth Cp.33,”, “was” for “is”

O=C(OCc1ncc(C(F)(F)F)cc1Cl)c1ccc2c(c1)B(O)OC2 [Compound 347]
≥ 80%: inhibition at 200 ppm [1] | inhibition at 200 ppm [2] | inhibition at 200 ppm [3]

COCCOC(=O)c1ccc2c(c1)B(O)OC2 [Compound 350]
≥ 80%: inhibition at 200 ppm [4] | inhibition at 200 ppm [1] | inhibition at 200 ppm [3] | inhibition at 200 ppm [5]

O=C(OC(CF)CF)c1cc2c(cc1Cl)COB2O [Compound 189]
≥ 80%: inhibition at 200 ppm [6] | inhibition at 200 ppm [1] | inhibition at 200 ppm [2] | inhibition at 200 ppm [5]

O=C(OC1CCOCC1)c1cc2c(cc1Cl)COB2O [Compound 237]
≥ 80%: inhibition at 200 ppm [6] | inhibition at 200 ppm [1] | inhibition at 200 ppm [5]

COc1ccc(CNC(=O)c2ccc3c(c2)B(O)OC3)cc1 [Compound 271]
≥ 80%: pest or weed control at 200 ppm [7] | inhibition at 200 ppm [1] | inhibition at 200 ppm [3]

Cc1ccccc1NC(=O)c1ccc2c(c1)B(O)OC2 [Compound 280]
≥ 80%: inhibition at 200 ppm [6] | inhibition at 200 ppm [1]

C[Si](C)(C)/C=C/COC(=O)c1ccc2c(c1)B(O)OC2 [Compound 342]
≥ 80%: inhibition at 200 ppm [4] | pest or weed control at 200 ppm [7] | inhibition at 200 ppm [8] | inhibition at 200 ppm [1] | inhibition at 200 ppm [2] | inhibition at 200 ppm [3] | inhibition at 200 ppm [5]

C#CC(CC)OC(=O)c1ccc2c(c1)B(O)OC2 (centres unmarked) [Compound 327]
≥ 80%: inhibition at 200 ppm [4] | pest or weed control at 200 ppm [7] | inhibition at 200 ppm [6] | inhibition at 200 ppm [1] | inhibition at 200 ppm [2]

Cc1csc(NC(=O)c2ccc3c(c2)B(O)OC3)n1 [Compound 298]
≥ 80%: pest or weed control at 200 ppm [7] | inhibition at 200 ppm [1] | inhibition at 200 ppm [3]

CCCCSCCOC(=O)c1ccc2c(c1)B(O)OC2 [Compound 324]
≥ 80%: inhibition at 200 ppm [4] | pest or weed control at 200 ppm [7] | inhibition at 200 ppm [8] | inhibition at 200 ppm [1] | inhibition at 200 ppm [2] | inhibition at 200 ppm [3] | inhibition at 200 ppm [5]

CC(F)COC(=O)c1cc2c(cc1Cl)COB2O (centres unmarked) [Compound 209]
≥ 80%: inhibition at 200 ppm [4] | inhibition at 200 ppm [6] | inhibition at 200 ppm [1] | inhibition at 200 ppm [2] | inhibition at 200 ppm [5]

O=C(OC1CCOCC1)c1ccc2c(c1)B(O)OC2 [Compound 366]
≥ 80%: inhibition at 200 ppm [4] | pest or weed control at 200 ppm [7] | inhibition at 200 ppm [1] | inhibition at 200 ppm [3]

O=C(OCCC(F)(F)F)c1ccc2c(c1)B(O)OC2 [Compound 369]
≥ 80%: inhibition at 200 ppm [4] | inhibition at 200 ppm [6] | inhibition at 200 ppm [1] | inhibition at 200 ppm [2] | inhibition at 200 ppm [5]

O=C(OCC1CCCO1)c1ccc2c(c1)B(O)OC2 (centres unmarked) [Compound 337]
≥ 80%: inhibition at 200 ppm [4] | pest or weed control at 200 ppm [7] | inhibition at 200 ppm [1] | inhibition at 200 ppm [3] | inhibition at 200 ppm [5]

O=C(OCCCCc1ccc2ccccc2c1)c1cc2c(cc1F)COB2O [Compound 415]
≥ 80%: inhibition at 200 ppm [4] | inhibition at 200 ppm [2] | inhibition at 200 ppm [3] | inhibition at 200 ppm [5]

O=C(OCCCF)c1cc2c(cc1F)COB2O [Compound 390]
≥ 80%: inhibition at 200 ppm [4] | pest or weed control at 200 ppm [7] | inhibition at 200 ppm [6] | inhibition at 200 ppm [1] | inhibition at 200 ppm [2] | inhibition at 200 ppm [5]

O=C(NCCOc1ccccc1)c1ccc2c(c1)B(O)OC2 [Compound 267]
≥ 80%: inhibition at 200 ppm [1] | inhibition at 200 ppm [3]

O=C(NCc1ccccc1)c1cc2c(cc1F)COB2O [Compound 104]
≥ 80%: inhibition at 200 ppm [1] | inhibition at 200 ppm [3]

COCCOC(=O)c1cc2c(cc1Cl)COB2O [Compound 224]
≥ 80%: inhibition at 200 ppm [6] | inhibition at 200 ppm [1] | inhibition at 200 ppm [2] | inhibition at 200 ppm [5]

CC(=O)c1sc(NC(=O)c2ccc3c(c2)B(O)OC3)nc1C [Compound 302]
≥ 80%: inhibition at 200 ppm [1] | inhibition at 200 ppm [3]

O=C(OCc1cccc2ccccc12)c1ccc2c(c1)B(O)OC2 [Compound 333]
≥ 80%: inhibition at 200 ppm [8] | inhibition at 200 ppm [1] | inhibition at 200 ppm [3] | inhibition at 200 ppm [5]

Cc1ccccc1NC(=O)c1cc2c(cc1Cl)COB2O [Compound 112]
≥ 80%: inhibition at 200 ppm [6]

O=C(OC(CF)CF)c1ccc2c(c1)B(O)OC2 [Compound 311]
≥ 80%: inhibition at 200 ppm [4] | pest or weed control at 200 ppm [7] | inhibition at 200 ppm [1] | inhibition at 200 ppm [3] | inhibition at 200 ppm [5]

COCCOCCOCCOC(=O)c1ccc2c(c1)B(O)OC2 [Compound 371]
≥ 80%: inhibition at 200 ppm [1] | inhibition at 200 ppm [3]

O=C(OCCF)c1cc2c(cc1F)COB2O [Compound 423]
≥ 80%: inhibition at 200 ppm [4] | pest or weed control at 200 ppm [7] | inhibition at 200 ppm [8] | inhibition at 200 ppm [1] | inhibition at 200 ppm [2] | inhibition at 200 ppm [3] | inhibition at 200 ppm [5]

O=C(OCc1ccc(C(F)(F)F)cc1Cl)c1ccc2c(c1)B(O)OC2 [Compound 326]
≥ 80%: inhibition at 200 ppm [6] | inhibition at 200 ppm [2] | inhibition at 200 ppm [5]

O=C(OCc1ncc(C(F)(F)F)cc1Cl)c1cc2c(cc1Cl)COB2O [Compound 221]
≥ 80%: inhibition at 200 ppm [6] | inhibition at 200 ppm [1] | inhibition at 200 ppm [2] | inhibition at 200 ppm [5]

COC(=O)C(OC(=O)c1cc2c(cc1Cl)COB2O)c1ccccc1 (centres unmarked) [Compound 223]
≥ 80%: pest or weed control at 200 ppm [7] | inhibition at 200 ppm [6] | inhibition at 200 ppm [1] | inhibition at 200 ppm [5]

O=C(OCc1ccc(C(F)(F)F)nc1)c1cc2c(cc1F)COB2O [Compound 405]
≥ 80%: inhibition at 200 ppm [4] | inhibition at 200 ppm [1] | inhibition at 200 ppm [3] | inhibition at 200 ppm [5]

O=C(OCCCCc1ccc2ccccc2c1)c1ccc2c(c1)B(O)OC2 [Compound 353]
≥ 80%: inhibition at 200 ppm [2] | inhibition at 200 ppm [3]

O=C(OCc1ccco1)c1cc2c(cc1F)COB2O [Compound 398]
≥ 80%: inhibition at 200 ppm [4] | pest or weed control at 200 ppm [7] | inhibition at 200 ppm [1] | inhibition at 200 ppm [3] | inhibition at 200 ppm [5]

O=C(OCC1CCSCC1)c1ccc2c(c1)B(O)OC2 [Compound 319]
≥ 80%: inhibition at 200 ppm [4] | inhibition at 200 ppm [8] | inhibition at 200 ppm [1] | inhibition at 200 ppm [3] | inhibition at 200 ppm [5]

CC(=O)c1sc(NC(=O)c2cc3c(cc2Cl)COB3O)nc1C [Compound 158]
≥ 80%: inhibition at 200 ppm [6] | inhibition at 200 ppm [1]

C[Si](C)(C)CCCOC(=O)c1cc2c(cc1F)COB2O [Compound 377]
≥ 80%: inhibition at 200 ppm [4] | inhibition at 200 ppm [8] | inhibition at 200 ppm [1] | inhibition at 200 ppm [2] | inhibition at 200 ppm [3] | inhibition at 200 ppm [5]

O=C(OCC(F)F)c1cc2c(cc1F)COB2O [Compound 427]
≥ 80%: inhibition at 200 ppm [4] | inhibition at 200 ppm [6] | inhibition at 200 ppm [1] | inhibition at 200 ppm [5]

O=C(NCc1ccccc1)c1ccc2c(c1)B(O)OC2 [Compound 261]
≥ 80%: pest or weed control at 200 ppm [7] | inhibition at 200 ppm [1] | inhibition at 200 ppm [3]

O=C(OCCCF)c1ccc2c(c1)B(O)OC2 [Compound 330]
≥ 80%: inhibition at 200 ppm [4] | pest or weed control at 200 ppm [7] | inhibition at 200 ppm [1] | inhibition at 200 ppm [2] | inhibition at 200 ppm [3] | inhibition at 200 ppm [5]

CC(F)COC(=O)c1cc2c(cc1F)COB2O (centres unmarked) [Compound 396]
≥ 80%: inhibition at 200 ppm [4] | pest or weed control at 200 ppm [7] | inhibition at 200 ppm [1] | inhibition at 200 ppm [3] | inhibition at 200 ppm [5]
